According to patent US6451353B1 (priority 1997, dated 2002):

Assays:
Tumor = assay: Tumor-inhibiting rates of extracts obtained with different solvents; type: in vivo, mice; conditions: 5-FU 10 mg/kg
Sarcoma 180 [1] = assay: Inhibiting effect on mouse sarcoma 180; type: in vivo; conditions: ICR mice; 5-Fu 5 mg/kg/d i.p. × 12
Method: Healthy Kunming and ICR mice with a body weight of 18-22 g. each were obtained from the breeding center of Sichuan Institute of Antibiotic Industry, Chengdu, Sichuan Province, P. R. China. Both male and female mice were used in the experiment. Sarcoma 180 was obtained from the Division of Pharmacology, Sichuan Institute of Antibiotic Industry, Chengdu, Sichuan Province, P. R. China. […] The experiment was carried out in vivo according to “Procedures of in vivo Screening of Antineoplastic Drugs” established in P. R. China in 1978.

Lewis lung carcinoma = assay: Inhibiting effect on Lewis lung carcinoma; type: in vivo, mice; conditions: Table 9; 5-Fu 5 mg/kg/d i.p. × 10
Method: Healthy C57BL/6N mice with a body weight of 18-22 g. each were obtained from the breeding center of Sichuan Institute of Antibiotic Industry, Chengdu, Sichuan Province, P. R. China. Both male and female mice were used in the experiment. Lewis lung carcinoma was obtained from the Division of Pharmacology, Sichuan Institute of Antibiotic Industry, Chengdu, Sichuan Province, P. R. China. […] The experiment was carried out in vivo according to “Procedures of in vivo Screening of Antineoplastic Drugs” established in P. R. China in 1978.

cervical carcinoma U14 = assay: Inhibiting effect on mouse cervical carcinoma U14; type: in vivo; conditions: Table 13, ICR mice; 5-Fu 5 mg/kg/d i.p. × 9
Method: Healthy Kunming and ICR mice with a body weight of 18-22 g. each were obtained from the breeding center of Sichuan Institute of Antibiotic Industry, Chengdu, Sichuan Province, P. R. China. Both male and female mice were used in the experiment. Uterine carcinoma U14 was obtained from the Division of Pharmacology, Sichuan Institute of Antibiotic Industry, Chengdu, Sichuan Province, P. R. China. […] The experiment was carried out in vivo according to “Procedures of in vivo Screening of Antineoplastic Drugs” established in P. R. China in 1978.

Sarcoma 180 [2] = assay: Combination with 5-fluorouracil and 60Co gamma rays on mouse sarcoma 180; type: in vivo; conditions: Kunming mice, Fagopyrum Composition 100 mg/kg p.o. × 10, 5-FU 5 mg/kg i.p. × 10, γ 300 rad × 1
Method: 60 Kunming mice were obtained from the breeding center of Chengdu Institute of Biological Products, the Ministry of Health, Chengdu, Sichuan Province, P. R. China.
Sarcoma 180 was obtained from the Division of Pharmacology, Sichuan Institute of Antibiotic Industry, Chengdu, Sichuan Province, P. R. China. The tumor line had been passed on several times in Kunming mice.
The drug was prepared by Nantong Pharmaceuticals, Nantong, Jiangsu Province, P. R. China.
Inoculation of tumor line and evaluation of therapeutic efficacy were performed according to “Procedures of in vivo Screening of Antineoplastic Drugs” established in P. R. China in 1978.
Sixty mice were divided into 6 groups, 10 mice for each group. Group 1 was the control group wherein the mice were treated only by saline. Groups 2 to 6 were treatment groups using different therapies. […] Group 3 was treated with 5-Fluorouracil. Group 4 was treated with ^60Co irradiation. […] Result of each group was then calculated and compared.

`O=c1[nH]cc(F)c(=O)[nH]1` [5-FU, 5-Fluorouracil] was tested, and the “Tumor-inhibiting Rate” value (Tumor) was 31.37%, the “Average Tumor Weight (x ± SD)” value (Sarcoma 180 [1]) was 0.49 ± 0.25 g and the “Change in Mean Value of Body Weight” value (Sarcoma 180 [1]) was “+2.01 g”. For the same molecule, the “Tumor Inhibiting Rate” value (Sarcoma 180 [1]) was 51.49%, the “Average Tumor Weight (x ± SD)” value (Lewis lung carcinoma) was 0.74 ± 0.49 g and the “Change in Mean Value of Body Weight” value (Lewis lung carcinoma) was “+0.4 g”. For the same molecule, the “Tumor Inhibiting Rate” value (Lewis lung carcinoma) was 52.26%, the “Average Tumor Weight (x ± SD)” value (cervical carcinoma U14) was 1.27 ± 0.37 g and the “Change in Mean Value of Body Weight” value (cervical carcinoma U14) was “+3.93 g”. The “Tumor Inhibiting Rate” value (cervical carcinoma U14) was 35.53%, the “Tumor Inhibiting Rate” value (Sarcoma 180 [2]) was 47.8% and the “Tumor Weight” value (Sarcoma 180 [2]; saline control 1.36) was 0.71 g.
